Results as given in patent US9266835B2, “Quinoline derivatives useful as CB-1 inverse agonists” (JANSSEN PHARMACEUTICA NV, priority 2014, dated 2016).
Structures can show the parent of a compound that is named as a salt.

What was measured:
[1] = biological target: Human CB2R (Cannabinoid receptor 2) (Homo sapiens (Human), UniProt P34972); assay: CB-2 in vitro cAMP assay (HTRF), inverse agonism; format: cell-based; conditions: mean where tested more than once
[2] = biological target: Human CB1R (Cannabinoid receptor 1) (Homo sapiens (Human), UniProt P21554); assay: CB-1 in vitro cAMP assay (HTRF), inverse agonism; format: cell-based; conditions: mean where tested more than once
Human CB1R (Cannabinoid receptor 1), sequence (P21554 whole entry): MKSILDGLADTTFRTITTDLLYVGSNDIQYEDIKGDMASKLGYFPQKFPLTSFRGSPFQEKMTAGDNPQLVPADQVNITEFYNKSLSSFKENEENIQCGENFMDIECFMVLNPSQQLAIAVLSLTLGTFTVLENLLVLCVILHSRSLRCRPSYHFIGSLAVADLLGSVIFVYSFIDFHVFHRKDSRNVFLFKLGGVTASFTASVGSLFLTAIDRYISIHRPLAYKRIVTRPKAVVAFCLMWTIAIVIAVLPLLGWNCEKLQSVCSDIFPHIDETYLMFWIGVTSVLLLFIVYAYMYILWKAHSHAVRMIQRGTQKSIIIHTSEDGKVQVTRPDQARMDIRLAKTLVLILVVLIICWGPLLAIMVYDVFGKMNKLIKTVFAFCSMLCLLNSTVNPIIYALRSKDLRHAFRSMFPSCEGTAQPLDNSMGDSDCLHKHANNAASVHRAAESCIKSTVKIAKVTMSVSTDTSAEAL

Human CB2R (Cannabinoid receptor 2), sequence (P34972 whole entry): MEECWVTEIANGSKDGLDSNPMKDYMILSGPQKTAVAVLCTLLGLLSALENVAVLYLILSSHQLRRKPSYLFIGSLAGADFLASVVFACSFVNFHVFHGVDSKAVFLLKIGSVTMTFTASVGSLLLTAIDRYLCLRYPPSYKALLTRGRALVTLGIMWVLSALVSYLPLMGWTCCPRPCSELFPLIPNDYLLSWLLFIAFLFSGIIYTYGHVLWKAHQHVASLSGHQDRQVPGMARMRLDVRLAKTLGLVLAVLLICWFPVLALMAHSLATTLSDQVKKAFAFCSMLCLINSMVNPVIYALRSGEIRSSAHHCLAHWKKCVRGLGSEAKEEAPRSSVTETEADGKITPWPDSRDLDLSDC

EC50 [1] | EC50 [2] | Structure (SMILES)
> 10000 nM | 242 nM | O=C(O)CCC(=O)N1CCC(Nc2cc(=O)[nH]c3ccc(C(c4ccc(Cl)cc4)c4ccc(Cl)cc4)cc23)CC1 [Compound 98, 4-(4-((6-(bis(4-chlorophenyl)methyl)-2-oxo-1,2-dihydroquinolin-4-yl)amino)piperidin-1-yl)-4-oxobutanoic acid]
> 10000 nM | 1500 nM | CC(C)(C)OC(=O)N1CC=C(c2ccnc3ccc(C(c4ccc(Cl)cc4)c4nccs4)cc23)CC1 (stereo not shown) [Compound 513, tert-butyl 4-(6-((4-chlorophenyl)(thiazol-2-yl)methyl)quinolin-4-yl)-5,6-dihydropyridine-1(2H)-carboxylate]
> 10000 nM | 55 nM | COCCOc1ccc(Nc2cc(=O)[nH]c3ccc(C(c4ccc(Cl)cc4)c4ccc(Cl)cc4)cc23)cc1 [Compound 94, 6-[Bis(4-chlorophenyl)methyl]-4-{[4-(2-methoxyethoxy)phenyl]-amino}quinolin-2(1H)-one]
> 10000 nM | 9700 nM | O=C(O)CN1CCC(Nc2cc(=O)[nH]c3ccc(C(c4ccc(Cl)cc4)c4ccc(Cl)cc4)cc23)CC1 [Compound 117, [4-({6-[Bis(4-chlorophenyl)methyl]-2-oxo-1,2-dihydroquinolin-4-yl}amino)piperidin-1-yl]acetic acid]
> 10000 nM | 95 nM | CC(C)(C)OC(=O)COc1ccc(Nc2cc(=O)[nH]c3ccc(C(c4ccc(Cl)cc4)c4ccc(Cl)cc4)cc23)cc1 [Compound 105, tert-butyl 2-(4-((6-(bis(4-chlorophenyl)methyl)-2-oxo-1,2-dihydroquinolin-4-yl)amino)phenoxy)acetate]
> 10000 nM | 169 nM | Clc1ccc(C(c2ccc3nccc(/C=C/c4ccccc4)c3c2)c2cscn2)cc1 (stereo not shown) [Compound 520, 6-[(4-Chlorophenyl)(1,3-thiazol-4-yl)methyl]-4-[(E)-2-phenylethenyl]quinoline]
> 10000 nM | 23 nM | COCCOc1cc(NC2CCN(S(=O)(=O)C(F)(F)F)CC2)c2cc(C(c3ccc(Cl)cc3)c3ccc(Cl)cc3)ccc2n1 [Compound 530, 6-(bis(4-chlorophenyl)methyl)-2-(2-methoxyethoxy)-N-(1-((trifluoromethyl)sulfonyl)piperidin-4-yl)quinolin-4-amine]
> 10000 nM | 443 nM | Cc1ccc(/C=C/c2cc(=O)[nH]c3ccc(C(c4ccc(Cl)cc4)c4cccs4)cc23)cc1 (stereo not shown) [Compound 27, 6-[(4-Chlorophenyl)(thiophen-2-yl)methyl]-4-[(E)-2-(4-methylphenyl)ethenyl]-quinolin-2(1H)-one]
3700 nM | 111 nM | O=c1cc(NC2CCC(C(F)(F)F)CC2)c2cc(C(c3ccc(Cl)cc3)c3ccc(Cl)cc3)ccc2[nH]1 (stereo not shown) [Compound 88, 6-[Bis(4-chlorophenyl)methyl]-4-{[4-(trifluoromethyl)cyclohexyl]-amino}quinolin-2(1H)-one]
> 10000 nM | 5120 nM | O=C(O)COc1ccc(Nc2cc(=O)[nH]c3ccc(C(c4ccc(Cl)cc4)c4ccc(Cl)cc4)cc23)cc1 [Compound 109, 2-(4-((6-(bis(4-chlorophenyl)methyl)-2-oxo-1,2-dihydroquinolin-4-yl)amino)phenoxy)acetic acid]
4200 nM | 10 nM | O=C(CC(F)(F)F)N1CCC(Nc2cc(=O)[nH]c3ccc(C(c4ccc(Cl)cc4)c4ccc(Cl)cc4)cc23)CC1 [Compound 69, 6-[Bis(4-chlorophenyl)methyl]-4-{[1-(3,3,3-trifluoropropanoyl)piperidin-4-yl]amino}quinolin-2(1H)-one]
> 10000 nM | > 10000 nM | OC(c1ccc(Cl)cc1)(c1ccc(Cl)cc1)c1ccc2nccc(/C=C/c3ccccc3)c2c1 [Compound 501, (E)-bis(4-chlorophenyl)(4-styrylquinolin-6-yl)methanol]
180 nM | 12 nM | O=S(=O)(N1CCC(Nc2ccnc3c(Br)cc(C(c4ccc(Cl)cc4)c4ccc(Cl)cc4)cc23)CC1)C(F)(F)F [Compound 524, 6-(bis(4-chlorophenyl)methyl)-8-bromo-N-(1-((trifluoromethyl)sulfonyl)piperidin-4-yl)quinolin-4-amine]
4100 nM | 11 nM | O=c1cc(NC2CCN(c3ncccn3)CC2)c2cc(C(c3ccc(Cl)cc3)c3ccc(Cl)cc3)ccc2[nH]1 [Compound 57, 6-(bis(4-chlorophenyl)methyl)-4-((1-(pyrimidin-2-yl)piperidin-4-yl)amino)quinolin-2(1H)-one]
> 10000 nM | 875 nM | O=c1cc(/C=C\c2ccc(C(F)(F)F)cc2)c2cc(C(c3ccc(Cl)cc3)c3cccs3)ccc2[nH]1 (stereo not shown) [Compound 18, 6-[(4-Chlorophenyl)(thiophen-2-yl)methyl]-4-{(Z)-2-[4-(trifluoromethyl)phenyl]-ethenyl}quinolin-2(1H)-one]
9900 nM | 31 nM | CCOC(=O)CCC(=O)N1CCC(Nc2cc(=O)[nH]c3ccc(C(c4ccc(Cl)cc4)c4ccc(Cl)cc4)cc23)CC1 [Compound 97, ethyl 4-[4-([6-[bis(4-chlorophenyl)methyl]-2-hydroxyquinolin-4-yl]amino)piperidin-1-yl]-4-oxobutanoate]
80 nM | 827 nM | O=c1cc(C2=CCN(S(=O)(=O)C(F)(F)F)CC2)c2cc(C(c3ccc(Cl)cc3)c3ccc(Cl)cc3)ccc2[nH]1 [Compound 17, 6-(bis(4-chlorophenyl)methyl)-4-(1-((trifluoromethyl)sulfonyl)-1,2,3,6-tetrahydropyridin-4-yl)quinolin-2(1H)-one]

The next lines start with the compound.

Structure (SMILES) | EC50 [1] | EC50 [2]
CCOC(=O)CC(=O)N1CCC(Nc2cc(=O)[nH]c3ccc(C(c4ccc(Cl)cc4)c4ccc(Cl)cc4)cc23)CC1 [Compound 95, Ethyl 3-[4-({6-[bis(4-chlorophenyl)methyl]-2-oxo-1,2-dihydroquinolin-4-yl}amino)piperidin-1-yl]-3-oxopropanoate] | 3650 nM | 13 nM
COc1ccc(C(c2ccc3nccc(/C=C/c4ccccc4)c3c2)c2nccs2)cc1 (stereo not shown) [Compound 505, (E)-2-((4-methoxyphenyl)(4-styrylquinolin-6-yl)methyl)thiazole] | > 10000 nM | 326 nM
COCCCc1cc(C(c2ccc(Cl)cc2)c2ccc(Cl)cc2)cc2c(NC3CCN(S(=O)(=O)C(F)(F)F)CC3)cc(OC)nc12 [Compound 548, 6-[bis(4-chlorophenyl)methyl]-2-methoxy-8-(3-methoxypropyl)-N-[1-(trifluoromethane)sulfonylpiperidin-4-yl]quinolin-4-amine] | > 42000 nM | 58 nM
O=c1cc(NC2CCN(S(=O)(=O)c3cccc(F)c3)CC2)c2cc(C(c3ccc(Cl)cc3)c3ccc(Cl)cc3)ccc2[nH]1 [Compound 82, 6-[Bis(4-chlorophenyl)methyl]-4-({1-[(3-fluorophenyl)sulfonyl]-piperidin-4-yl}amino)quinolin-2(1H)-one] | 3200 nM | 63 nM
CC(C)(C)OC(=O)N1CC=C(c2cc(=O)[nH]c3ccc(C(c4ccc(Cl)cc4)c4ccc(Cl)cc4)cc23)CC1 [Compound 13, tert-Butyl 4-{6-[bis(4-chlorophenyl)methyl]-2-oxo-1,2-dihydroquinolin-4-yl}-3,6-dihydropyridine-1(2H)-carboxylate] | > 10000 nM | 403 nM
CC(C)(C)OC(=O)/N=C(/NC(=O)OC(C)(C)C)N1CCC(Nc2cc(=O)[nH]c3ccc(C(c4ccc(Cl)cc4)c4ccc(Cl)cc4)cc23)CC1 [Compound 119, (Z)-tert-butyl ((4-((6-(bis(4-chlorophenyl)methyl)-2-oxo-1,2-dihydroquinolin-4-yl)amino)piperidin-1-yl)((tert-butoxycarbonyl)imino)methyl)carbamate] | > 10000 nM | 128 nM
NCCCCOc1cc(C(c2ccc(Cl)cc2)c2ccc(Cl)cc2)cc2c(NC3CCN(S(=O)(=O)C(F)(F)F)CC3)ccnc12 [Compound 542, 8-(4-aminobutoxy)-6-(bis(4-chlorophenyl)methyl)-N-(1-((trifluoromethyl)sulfonyl)piperidin-4-yl)quinolin-4-amine, trifluoroacetic acid salt] | > 10000 nM | 144 nM
O=C(O)CCN1CCC(Nc2cc(=O)[nH]c3ccc(C(c4ccc(Cl)cc4)c4ccc(Cl)cc4)cc23)CC1 [Compound 115, 3-[4-({6-[Bis(4-chlorophenyl)methyl]-2-oxo-1,2-dihydroquinolin-4-yl}amino)piperidin-1-yl]propanoic acid] | > 10000 nM | > 10000 nM
COc1cc(NC2CCN(S(=O)(=O)C(F)(F)F)CC2)c2cc(C(c3ccc(Cl)cc3)c3ccc(Cl)cc3)cc(Br)c2n1 [Compound 546, 6-(bis(4-chlorophenyl)methyl)-8-bromo-2-methoxy-N-(1-((trifluoromethyl)sulfonyl)piperidin-4-yl)quinolin-4-amine] | 4800 nM | 121 nM
COC(=O)Cc1ccc(Nc2cc(=O)[nH]c3ccc(C(c4ccc(Cl)cc4)c4ccc(Cl)cc4)cc23)cc1 [Compound 124, Methyl [4-({6-[bis(4-chlorophenyl)methyl]-2-oxo-1,2-dihydroquinolin-4-yl}amino)phenyl]acetate] | > 10000 nM | 27 nM
CCOC(=O)CCCNc1cc(C(O)(c2ccc(Cl)cc2)c2ccc(Cl)cc2)cc2c(NC3CCN(S(=O)(=O)C(F)(F)F)CC3)cc(OC(C)(C)C)nc12 [Compound 529, Ethyl 4-({6-[bis(4-chlorophenyl)(hydroxy)methyl]-2-tert-butoxy-4-({1-[(trifluoromethyl)sulfonyl]-piperidin-4-yl}amino)quinolin-8-yl}amino)butanoate] | > 10000 nM | > 10000 nM
COCCNc1cc(C(c2ccc(Cl)cc2)c2ccc(Cl)cc2)cc2c(NC3CCN(S(=O)(=O)C(F)(F)F)CC3)cc(=O)[nH]c12 [Compound 100, 6-(bis(4-chlorophenyl)methyl)-8-((2-methoxyethyl)amino)-4-((1-((trifluoromethyl)sulfonyl)piperidin-4-yl)amino)quinolin-2(1H)-one] | 200 nM | 6 nM
